The results in this text go back to US20150018299A1, “TREATMENT OF LIVER CONDITIONS” (CAN-FITE BIOPHARMA LTD., priority 2012, published 2015).

Series [1] has as its system patients with advanced hepatocellular carcinoma (HCC). Briefly: Phase 1-2 dose-escalation study of oral CF102: overall survival and clinical activity. Conditions: for Survival from start of CF102: individual subjects. Type of series: in vivo, human. An excerpt: All patients were over the age of 18 with incurable advanced, refractory, or metastatic hepatocellular carcinoma (HCC), documented by cytology and/or histology for patients without underlying cirrhosis or according to the American Association for the Study of Liver Diseases Practice Guideline algorithm for patients with underlying cirrhosis. All patients had measurable disease, according to Response Evaluation Criteria in Solid Tumors (RECIST); […] The trial employed a conventional “three plus three” design. […] At the first stage nine patients were enrolled for the dose escalation phase and then additional nine were enrolled for the dose confirmation phase. Furthermore, nine patients have undergone intra-subject dose escalation per protocol. Subjects returned for a follow-up visit 28 days after completion of the last dose of study drug. […] Safety data analysis was conducted on all subjects who received at least one dose of CF102. The number and percentage of subjects who experienced one or more AEs were summarized by dose level group, relationship to study drug, and severity. AEs were coded using Medical Dictionary for Regulatory Activities (MedDRA) terminology. Clinical laboratory parameters were summarized using descriptive statistics, by post-dosing shifts relative to baseline, and data listings of clinically significant abnormalities. Vital signs and ECG data were summarized by changes from baseline values at each dose level using descriptive statistics. Pharmacokinetic parameters, including AUC (0-8 h), Cmax, Cmin, and Tmax was estimated. Comparisons across dose levels were made to assess proportionality. Overall survival was calculated using the Kaplan-Meier method.

For series [2] the following is noted: human, in vivo. An excerpt:
The number and percentage of subjects who experienced one or more AEs were summarized by dose level group, relationship to study drug, and severity. AEs were coded using Medical Dictionary for Regulatory Activities (MedDRA) terminology. Clinical laboratory parameters were summarized using descriptive statistics, by post-dosing shifts relative to baseline, and data listings of clinically significant abnormalities. Vital signs and ECG data were summarized by changes from baseline values at each dose level using descriptive statistics. Pharmacokinetic parameters, including AUC (0-8 h), Cmax, Cmin, and Tmax was estimated. Comparisons across dose levels were made to assess proportionality. Overall survival was calculated using the Kaplan-Meier method.

Series [3] concerns patients with hepatocellular carcinoma (HCC). As to the kind of experiment: Phase 1-2 study of oral CF102: liver function parameters over 6 months. Conditions: serum, over a 6 months period. Type of series: in vivo, human. An excerpt:
The trial employed a conventional “three plus three” design. […] At the first stage nine patients were enrolled for the dose escalation phase and then additional nine were enrolled for the dose confirmation phase. Furthermore, nine patients have undergone intra-subject dose escalation per protocol. Subjects returned for a follow-up visit 28 days after completion of the last dose of study drug.

Molecules are shown by their SMILES. “And” between values parts separate entries of the source, which are not always exact repeats. Equal values may be shown once.

As to `CNC(=O)[C@H]1O[C@@H](n2cnc3c(NCc4cccc(I)c4)nc(Cl)nc32)[C@H](O)[C@@H]1O` [CF102, 2-Chloro-N^6-(3-iodobenzyl)-adenosine-5′-N-methyluronamide], the “Overall survival, range” value in series [1] (12 sorafenib failures) is reported as 3.5-13.2 months; in series [1] (all 18 subjects) it was 3.5-27.3 months; in series [1] (five Child-Pugh B patients), 7.0-13.2 months. The “Median overall survival (OS)” value was 7 months and 7.0 months in series [1] (12 sorafenib failures, CF102 as second line therapy); 7.82 months and 7.8 months in series [1] (all 18 subjects); 8.1 months in series [1] (five Child-Pugh B patients). Also, the “Survival from start of CF102” value in series [1] (starting dose 1 mg BID oral) was 7.1 months and 5.6 months and 13.2** months and 7.0 months and 8.2 months and 27.3* months; in series [1] (starting dose 5 mg BID oral), 4.1 months and 7.1 months and 10.6 months and 10.7 months and 3.5 months and 4.2 months; in series [1] (starting dose 25 mg BID oral), 8.3 months and 8.1 months and 7.6 months and 7.0 months and 12.6 months and 8.4 months. For the same compound, the “Period of Stable Disease (SD) by RECIST criteria” value in series [1] (one subject) is 10 months. For the same compound, in series [1] (one subject, continuing on drug), the “Time receiving CF102” value is reported as at least 41 months. This compound registered a Plasma levels in series [2] above 0.66 nM. Moreover, in series [3], the “Liver function parameters: ALT, AST, albumin, bilirubin, prothrombin time, ALK phosphatase, α-fetoprotein” value is “remained stable”.
